Results reported in ChEMBL document CHEMBL5678810.
The source made the active and inactive calls. No cut-off for these calls is given here.

How the values were obtained:
[1] = target: Leucine-rich repeat serine/threonine-protein kinase 2 (Homo sapiens) (UniProt Q5S007); test: Inhibition of wildtype GFP-tagged LRRK2 phosphorylation at Ser935 residue (unknown origin) transfected in HEK293 cells upto 3 uM incubated for 90 mins by immunoblot analysis; format: cell-based
[2] = target: Dual specificity mitogen-activated protein kinase kinase 1 (Homo sapiens) (UniProt Q02750); test: Inhibition of T7 bacteriophage fused human MEK1 at 10 uM by KINOMEscan analysis relative to control
[3] = target: Serine/threonine-protein kinase PLK3 (Homo sapiens) (UniProt Q9H4B4); test: Inhibition of T7 bacteriophage fused human PLK3 at 10 uM by KINOMEscan analysis relative to control
[4] = target: Myosin light chain kinase, smooth muscle (Homo sapiens) (UniProt Q15746); test: Inhibition of T7 bacteriophage fused human MYLK at 10 uM by KINOMEscan analysis relative to control; values are per cent of control
[5] = target: Phosphatidylinositol 4,5-bisphosphate 3-kinase catalytic subunit beta isoform (Homo sapiens) (UniProt P42338); test: Inhibition of T7 bacteriophage fused human PIK3CB at 10 uM by KINOMEscan analysis relative to control
[6] = target: Serine/threonine-protein kinase ULK2 (Homo sapiens) (UniProt Q8IYT8); test: Inhibition of T7 bacteriophage fused human ULK2 at 10 uM by KINOMEscan analysis relative to control
Sequence of Serine/threonine-protein kinase ULK2 (Homo sapiens) (Q8IYT8 whole entry, the tested form may be a part): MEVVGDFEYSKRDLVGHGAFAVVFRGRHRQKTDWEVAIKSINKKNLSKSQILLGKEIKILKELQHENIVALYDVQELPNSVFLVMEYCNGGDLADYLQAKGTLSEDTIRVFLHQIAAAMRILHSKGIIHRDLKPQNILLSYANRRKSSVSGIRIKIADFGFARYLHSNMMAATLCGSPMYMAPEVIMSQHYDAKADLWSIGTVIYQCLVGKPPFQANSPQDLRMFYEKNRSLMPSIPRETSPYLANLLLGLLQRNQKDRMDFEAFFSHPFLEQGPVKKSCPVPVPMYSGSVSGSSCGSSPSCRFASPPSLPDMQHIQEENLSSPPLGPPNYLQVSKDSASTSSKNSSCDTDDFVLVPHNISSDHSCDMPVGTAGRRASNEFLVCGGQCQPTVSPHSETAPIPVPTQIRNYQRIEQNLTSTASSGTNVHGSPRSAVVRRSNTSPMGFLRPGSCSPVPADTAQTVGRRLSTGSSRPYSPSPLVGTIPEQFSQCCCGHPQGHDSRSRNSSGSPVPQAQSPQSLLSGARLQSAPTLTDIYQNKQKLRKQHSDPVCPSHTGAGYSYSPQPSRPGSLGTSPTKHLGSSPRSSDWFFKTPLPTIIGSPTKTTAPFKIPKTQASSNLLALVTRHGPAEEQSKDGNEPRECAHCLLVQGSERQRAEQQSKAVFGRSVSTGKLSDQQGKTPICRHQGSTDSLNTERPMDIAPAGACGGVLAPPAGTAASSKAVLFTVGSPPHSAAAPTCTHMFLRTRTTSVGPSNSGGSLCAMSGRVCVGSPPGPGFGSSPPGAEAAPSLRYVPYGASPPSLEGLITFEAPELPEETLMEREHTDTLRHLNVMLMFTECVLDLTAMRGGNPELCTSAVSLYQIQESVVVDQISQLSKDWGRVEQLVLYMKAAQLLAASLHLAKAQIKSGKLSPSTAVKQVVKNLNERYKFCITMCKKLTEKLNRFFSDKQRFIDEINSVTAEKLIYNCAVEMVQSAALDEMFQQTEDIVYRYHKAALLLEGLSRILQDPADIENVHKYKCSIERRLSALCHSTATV

[7] = target: Dual specificity mitogen-activated protein kinase kinase 6 (Homo sapiens) (UniProt P52564); test: Inhibition of T7 bacteriophage fused human MEK6 at 10 uM by KINOMEscan analysis relative to control; values are per cent of control
[8] = target: Serine/threonine-protein kinase Nek9 (Homo sapiens) (UniProt Q8TD19); test: Inhibition of T7 bacteriophage fused human NEK9 at 10 uM by KINOMEscan analysis relative to control
[9] = test system: Receptor-type tyrosine-protein kinase FLT3 (Homo sapiens), P36888 [N841I]; test: Inhibition of T7 bacteriophage fused human FLT3 N841I mutant at 10 uM by KINOMEscan analysis relative to control; values are per cent of control
[10] = target: Dual specificity mitogen-activated protein kinase kinase 3 (Homo sapiens) (UniProt P46734); test: Inhibition of T7 bacteriophage fused human MEK3 at 10 uM by KINOMEscan analysis relative to control; values are per cent of control
[11] = target: Mitogen-activated protein kinase kinase kinase 4 (Homo sapiens) (UniProt Q9Y6R4); test: Inhibition of T7 bacteriophage fused human MAP3K4 at 10 uM by KINOMEscan analysis relative to control
[12] = target: Membrane-associated tyrosine- and threonine-specific cdc2-inhibitory kinase (Homo sapiens) (UniProt Q99640); test: Inhibition of T7 bacteriophage fused human PKMYT1 at 10 uM by KINOMEscan analysis relative to control
[13] = target: cAMP-dependent protein kinase catalytic subunit alpha (Homo sapiens) (UniProt P17612); test: Inhibition of T7 bacteriophage fused human PKAC-alpha at 10 uM by KINOMEscan analysis relative to control
[14] = target: Serine/threonine-protein kinase D2 (Homo sapiens) (UniProt Q9BZL6); test: Inhibition of T7 bacteriophage fused human PRKD2 at 10 uM by KINOMEscan analysis relative to control
[15] = target: Calcium/calmodulin-dependent protein kinase type II subunit gamma (Homo sapiens) (UniProt Q13555); test: Inhibition of T7 bacteriophage fused human CAMK2G at 10 uM by KINOMEscan analysis relative to control
[16] = target: Mitogen-activated protein kinase kinase kinase 6 (Homo sapiens) (UniProt O95382); test: Inhibition of T7 bacteriophage fused human ASK2 at 10 uM by KINOMEscan analysis relative to control
[17] = target: Epidermal growth factor receptor (Homo sapiens) (UniProt P00533); test: Inhibition of T7 bacteriophage fused human EGFR at 10 uM by KINOMEscan analysis relative to control; values are per cent of control
[18] = target: Serine/threonine-protein kinase 17A (Homo sapiens) (UniProt Q9UEE5); test: Inhibition of T7 bacteriophage fused human DRAK1 at 10 uM by KINOMEscan analysis relative to control
[19] = target: Serine/threonine-protein kinase SIK3 (Homo sapiens) (UniProt Q9Y2K2); test: Inhibition of T7 bacteriophage fused human QSK at 10 uM by KINOMEscan analysis relative to control
[20] = target: Cyclin-dependent kinase 13 (Homo sapiens) (UniProt Q14004); test: Inhibition of T7 bacteriophage fused human CDC2L5 at 10 uM by KINOMEscan analysis relative to control
[21] = test system: Epidermal growth factor receptor (Homo sapiens), P00533 [UNDEFINED MUTATION]; test: Inhibition of T7 bacteriophage fused human EGFR L747/T751del/Sins mutant at 10 uM by KINOMEscan analysis relative to control
[22] = target: Cyclin-dependent kinase 18 (Homo sapiens) (UniProt Q07002); test: Inhibition of T7 bacteriophage fused human PCTK3 at 10 uM by KINOMEscan analysis relative to control
Sequence of Cyclin-dependent kinase 18 (Homo sapiens) (Q07002 whole entry, the tested form may be a part): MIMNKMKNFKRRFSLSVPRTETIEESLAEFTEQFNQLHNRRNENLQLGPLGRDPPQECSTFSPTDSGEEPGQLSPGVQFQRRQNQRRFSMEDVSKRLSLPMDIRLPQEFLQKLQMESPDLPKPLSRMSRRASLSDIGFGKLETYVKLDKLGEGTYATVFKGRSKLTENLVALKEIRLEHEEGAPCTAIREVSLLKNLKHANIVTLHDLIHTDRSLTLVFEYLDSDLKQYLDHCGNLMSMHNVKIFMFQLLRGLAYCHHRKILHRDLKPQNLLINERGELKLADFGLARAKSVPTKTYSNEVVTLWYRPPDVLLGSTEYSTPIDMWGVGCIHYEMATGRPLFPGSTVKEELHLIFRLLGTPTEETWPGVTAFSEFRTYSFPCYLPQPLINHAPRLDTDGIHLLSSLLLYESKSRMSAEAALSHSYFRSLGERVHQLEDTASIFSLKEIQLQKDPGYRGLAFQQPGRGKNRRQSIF

[23] = target: Death-associated protein kinase 1 (Homo sapiens) (UniProt P53355); test: Inhibition of T7 bacteriophage fused human DAPK1 at 10 uM by KINOMEscan analysis relative to control; values are per cent of control
[24] = target: Leucine-rich repeat serine/threonine-protein kinase 2 (Homo sapiens) (UniProt Q5S007); test: Inhibition of T7 bacteriophage fused human LRRK2 at 10 uM by KINOMEscan analysis relative to control; values are per cent of control
[25] = target: Ephrin type-B receptor 6 (Homo sapiens) (UniProt O15197); test: Inhibition of T7 bacteriophage fused human EPHB6 at 10 uM by KINOMEscan analysis relative to control
Sequence of Ephrin type-B receptor 6 (Homo sapiens) (O15197 whole entry, the tested form may be a part): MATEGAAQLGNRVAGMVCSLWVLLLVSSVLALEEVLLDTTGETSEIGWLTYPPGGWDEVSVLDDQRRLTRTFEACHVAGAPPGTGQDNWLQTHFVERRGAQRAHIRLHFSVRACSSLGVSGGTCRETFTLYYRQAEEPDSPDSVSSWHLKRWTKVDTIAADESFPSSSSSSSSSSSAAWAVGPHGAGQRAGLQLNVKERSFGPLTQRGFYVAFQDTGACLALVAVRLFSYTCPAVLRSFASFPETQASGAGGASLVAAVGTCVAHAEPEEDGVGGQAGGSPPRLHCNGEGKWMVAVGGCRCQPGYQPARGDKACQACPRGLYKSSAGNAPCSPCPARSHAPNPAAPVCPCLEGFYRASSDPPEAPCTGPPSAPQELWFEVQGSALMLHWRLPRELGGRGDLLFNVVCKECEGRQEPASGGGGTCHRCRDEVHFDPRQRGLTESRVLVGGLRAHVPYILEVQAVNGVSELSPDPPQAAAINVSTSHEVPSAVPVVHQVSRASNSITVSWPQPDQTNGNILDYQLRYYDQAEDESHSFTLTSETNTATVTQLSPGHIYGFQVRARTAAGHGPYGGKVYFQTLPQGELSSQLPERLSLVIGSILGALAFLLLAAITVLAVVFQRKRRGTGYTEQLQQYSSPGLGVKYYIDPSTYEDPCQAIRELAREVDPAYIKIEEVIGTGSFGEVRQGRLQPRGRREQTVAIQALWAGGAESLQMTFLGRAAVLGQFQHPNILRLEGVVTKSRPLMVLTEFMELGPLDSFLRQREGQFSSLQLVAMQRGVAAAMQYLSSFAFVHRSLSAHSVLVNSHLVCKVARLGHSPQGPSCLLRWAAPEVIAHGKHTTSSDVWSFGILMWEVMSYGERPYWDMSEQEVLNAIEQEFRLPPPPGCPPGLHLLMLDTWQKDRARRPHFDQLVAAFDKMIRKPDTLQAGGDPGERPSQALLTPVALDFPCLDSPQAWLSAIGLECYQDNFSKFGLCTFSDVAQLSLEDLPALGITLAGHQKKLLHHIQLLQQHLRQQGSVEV

[26] = target: Dual specificity mitogen-activated protein kinase kinase 7 (Homo sapiens) (UniProt O14733); test: Inhibition of T7 bacteriophage fused human MKK7 at 10 uM by KINOMEscan analysis relative to control
[27] = target: Dual specificity tyrosine-phosphorylation-regulated kinase 1A (Homo sapiens) (UniProt Q13627); test: Inhibition of T7 bacteriophage fused human DYRK1A at 10 uM by KINOMEscan analysis relative to control; values are per cent of control
[28] = target: Serine/threonine-protein kinase Nek7 (Homo sapiens) (UniProt Q8TDX7); test: Inhibition of T7 bacteriophage fused human NEK7 at 10 uM by KINOMEscan analysis relative to control
[29] = target: Dual specificity tyrosine-phosphorylation-regulated kinase 1B (Homo sapiens) (UniProt Q9Y463); test: Inhibition of T7 bacteriophage fused human DYRK1B at 10 uM by KINOMEscan analysis relative to control; values are per cent of control

Sequence of Leucine-rich repeat serine/threonine-protein kinase 2 (Homo sapiens) (Q5S007 whole entry, the tested form may be a part): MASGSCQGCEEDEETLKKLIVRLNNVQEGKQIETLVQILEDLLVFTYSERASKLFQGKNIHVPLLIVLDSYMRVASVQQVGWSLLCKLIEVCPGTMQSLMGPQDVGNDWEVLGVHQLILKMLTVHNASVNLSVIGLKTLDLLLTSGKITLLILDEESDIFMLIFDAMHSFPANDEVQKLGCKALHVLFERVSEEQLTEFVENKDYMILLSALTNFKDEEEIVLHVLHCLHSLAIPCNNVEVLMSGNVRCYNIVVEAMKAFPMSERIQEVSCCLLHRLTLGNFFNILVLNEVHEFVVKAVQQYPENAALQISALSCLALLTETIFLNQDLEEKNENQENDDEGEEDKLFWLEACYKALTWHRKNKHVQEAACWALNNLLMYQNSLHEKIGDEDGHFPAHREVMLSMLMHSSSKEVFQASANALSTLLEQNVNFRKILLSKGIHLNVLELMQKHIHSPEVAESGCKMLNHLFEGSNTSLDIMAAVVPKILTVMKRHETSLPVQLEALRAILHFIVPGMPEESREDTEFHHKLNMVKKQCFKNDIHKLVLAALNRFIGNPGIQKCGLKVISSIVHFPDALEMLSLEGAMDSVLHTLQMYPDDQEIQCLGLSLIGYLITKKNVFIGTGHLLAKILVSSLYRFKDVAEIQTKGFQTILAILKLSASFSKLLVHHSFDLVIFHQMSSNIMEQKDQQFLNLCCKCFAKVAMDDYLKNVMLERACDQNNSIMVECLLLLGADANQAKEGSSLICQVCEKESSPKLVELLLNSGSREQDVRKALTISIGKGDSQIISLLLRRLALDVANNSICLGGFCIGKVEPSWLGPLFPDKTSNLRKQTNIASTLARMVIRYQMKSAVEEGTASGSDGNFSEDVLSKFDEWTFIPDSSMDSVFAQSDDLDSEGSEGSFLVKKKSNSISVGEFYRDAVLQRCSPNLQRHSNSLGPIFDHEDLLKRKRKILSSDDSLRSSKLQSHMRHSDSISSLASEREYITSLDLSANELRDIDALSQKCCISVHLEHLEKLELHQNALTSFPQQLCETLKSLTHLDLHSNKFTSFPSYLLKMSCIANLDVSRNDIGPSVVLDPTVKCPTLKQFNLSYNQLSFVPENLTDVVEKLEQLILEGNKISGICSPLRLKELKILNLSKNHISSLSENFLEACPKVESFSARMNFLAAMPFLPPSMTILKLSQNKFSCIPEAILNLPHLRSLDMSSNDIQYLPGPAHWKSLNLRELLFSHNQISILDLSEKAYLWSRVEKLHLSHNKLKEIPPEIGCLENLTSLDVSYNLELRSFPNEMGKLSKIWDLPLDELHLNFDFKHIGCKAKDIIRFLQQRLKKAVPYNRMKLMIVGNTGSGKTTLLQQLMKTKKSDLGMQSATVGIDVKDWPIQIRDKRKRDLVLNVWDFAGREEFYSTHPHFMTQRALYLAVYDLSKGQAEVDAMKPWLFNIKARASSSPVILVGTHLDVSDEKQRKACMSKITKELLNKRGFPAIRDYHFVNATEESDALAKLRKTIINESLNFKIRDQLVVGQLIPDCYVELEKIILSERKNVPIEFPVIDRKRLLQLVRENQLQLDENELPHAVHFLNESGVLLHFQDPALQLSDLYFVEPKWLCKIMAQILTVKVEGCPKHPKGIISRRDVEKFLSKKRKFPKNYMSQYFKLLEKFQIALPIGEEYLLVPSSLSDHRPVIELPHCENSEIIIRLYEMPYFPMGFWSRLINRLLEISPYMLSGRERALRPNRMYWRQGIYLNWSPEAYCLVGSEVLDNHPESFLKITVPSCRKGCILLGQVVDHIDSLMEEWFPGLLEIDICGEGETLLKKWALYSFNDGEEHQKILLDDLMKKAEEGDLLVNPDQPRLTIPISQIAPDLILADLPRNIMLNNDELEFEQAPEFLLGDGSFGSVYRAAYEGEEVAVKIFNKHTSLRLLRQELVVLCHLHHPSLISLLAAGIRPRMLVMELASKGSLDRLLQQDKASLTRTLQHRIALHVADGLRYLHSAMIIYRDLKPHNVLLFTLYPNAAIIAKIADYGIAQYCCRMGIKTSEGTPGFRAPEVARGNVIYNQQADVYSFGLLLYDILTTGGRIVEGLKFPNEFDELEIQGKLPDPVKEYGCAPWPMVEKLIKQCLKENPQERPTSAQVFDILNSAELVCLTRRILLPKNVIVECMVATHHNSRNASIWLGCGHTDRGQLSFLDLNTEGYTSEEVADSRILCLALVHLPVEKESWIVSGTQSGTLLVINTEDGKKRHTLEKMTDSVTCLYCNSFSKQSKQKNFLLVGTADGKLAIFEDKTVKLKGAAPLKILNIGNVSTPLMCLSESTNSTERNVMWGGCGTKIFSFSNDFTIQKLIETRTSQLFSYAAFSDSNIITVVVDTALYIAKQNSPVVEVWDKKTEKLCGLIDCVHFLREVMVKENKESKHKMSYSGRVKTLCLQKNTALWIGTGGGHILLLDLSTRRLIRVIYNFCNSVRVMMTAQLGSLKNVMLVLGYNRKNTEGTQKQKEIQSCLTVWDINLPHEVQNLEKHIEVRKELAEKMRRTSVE

How did the inhibition [1] turn out when `CCOc1cc(C(=O)N2CCC(N3CCN(C)CC3)CC2)ccc1Nc1ncc2c(n1)N(C1CCCC1)c1ccccc1C(=O)N2C` was run?
Its inhibition is “inactive”.

With `COc1cc(N2CCC(N3CCN(C)CC3)CC2)ccc1Nc1ncc2c(n1)N(C)c1ccccc1C(=O)N2C` as the molecule, how does the inhibition [2] read?
Its inhibition is 100%.

What about the inhibition [3] of the same molecule?
Its inhibition is 51%.

What about the residual activity [4] of the same molecule?
The residual activity was 8.7%.

What about the inhibition [5] of the same molecule?
Its inhibition is 96%.

What about the inhibition [6] of the same molecule?
Its inhibition is 67%.

And the residual activity [7]?
The residual activity was 83%.

And the inhibition [8]?
Its inhibition is 100%.

And the residual activity [9]?
The residual activity was 73%.

What about the residual activity [10] of the same molecule?
The residual activity was 75%.

And the inhibition [11]?
The inhibition was 100%.

And the inhibition [12]?
Its inhibition is 80%.

What about the inhibition [13] of the same molecule?
The inhibition was 100%.

And the inhibition [14]?
The inhibition was 59%.

And the inhibition [15]?
Its inhibition is 47%.

And the inhibition [16]?
The inhibition was 100%.

And the residual activity [17]?
The residual activity was 84%.

What about the inhibition [18] of the same molecule?
The inhibition was 100%.

And the inhibition [19]?
Its inhibition is 100%.

What about the inhibition [20] of the same molecule?
Its inhibition is 100%.

What about the inhibition [21] of the same molecule?
Its inhibition is 100%.

What about the inhibition [22] of the same molecule?
Its inhibition is 100%.

And the residual activity [23]?
The residual activity was 73%.

And the residual activity [24]?
Its residual activity is 0%.

And the inhibition [25]?
The inhibition was 31%.

What about the inhibition [26] of the same molecule?
The inhibition was 100%.

And the residual activity [27]?
Its residual activity is 99%.

And the inhibition [28]?
Its inhibition is 100%.

And the residual activity [29]?
The residual activity was 94%.
